Reference: patent US8076489B2, “5-hydroxy-benzothiazole derivatives having beta-2-adrenoreceptor agonist activity” (Novartis AG, priority 2004, dated 2011)
Like-named read-outs stand apart in the source and are kept apart here.

Assays:
[1] = tested on: guinea pig tracheal strip; experiment: guinea-pig tracheal strip in vitro assay (duration of action); format: cell-based
Text: (§1) Compounds of formulae IX are known or may be prepared using procedures that are known or are analogous to those hereinafter described in the Examples. Compounds of formula I in free, salt or solvate form are useful as pharmaceuticals. Accordingly the invention also provides a compound of formula I in free, salt or solvate form for use as a pharmaceutical. The compounds of formula I in free, salt or solvate form, hereinafter referred to alternatively as “agents of the invention”, have good β2-adreno-receptor agonist activity. The β2 agonist activity, onset of action and duration of action of the agents of the invention may be tested using the guinea pig tracheal strip in vitro assay according to the procedure of R. A. Coleman and A. T. Nials, J. Pharmacol. Methods 1989, 21, 71. The binding potency and selectivity for the β2-adrenoreceptor relative to the β1-adrenoreceptor can be measured by a classical filtration binding assay according to the procedure of Current Protocols in Pharmacology (S. J. Enna (editor-in-chief) et al, John Wiley & Son, Inc, 1998), or by cAMP determination in cells expressing β2- or β1-adreno-ceptor, according to the procedure of B. January et al, Brit. J. Pharmacol. 1998, 123, 701.

β2-adrenoreceptor = β2-adrenoreceptor (Homo sapiens, UniProt P07550); experiment: classical filtration binding assay, β2 binding potency
Text: as §1
Many of the compounds have binding selectivities for the β2-adrenoreceptor relative to the β1-adrenoreceptor from 1.5 to 500.

[2] = classical filtration binding assay, read-out: β2 binding potency, Ki

β2-adrenoreceptor, sequence (P07550 whole entry, species assumed): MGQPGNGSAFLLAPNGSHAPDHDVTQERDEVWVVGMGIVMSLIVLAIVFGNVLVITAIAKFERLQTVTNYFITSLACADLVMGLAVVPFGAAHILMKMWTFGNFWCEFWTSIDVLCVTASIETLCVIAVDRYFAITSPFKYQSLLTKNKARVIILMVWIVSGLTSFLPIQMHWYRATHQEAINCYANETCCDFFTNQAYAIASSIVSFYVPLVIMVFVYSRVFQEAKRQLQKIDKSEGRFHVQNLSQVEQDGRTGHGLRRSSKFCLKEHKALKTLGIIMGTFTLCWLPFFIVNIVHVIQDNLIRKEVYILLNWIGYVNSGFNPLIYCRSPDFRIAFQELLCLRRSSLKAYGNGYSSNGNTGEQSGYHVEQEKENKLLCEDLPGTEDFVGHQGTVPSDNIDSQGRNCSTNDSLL

In the case of `CC(C)(Cc1ccccc1)NC[C@H](O)c1cc(O)cc2[nH]c(=O)sc12` [Example 1, (R)-7-[2-(1,1-Dimethyl-2-phenyl-ethylamino)-1-hydroxy-ethyl]-5-hydroxy-3H-benzothiazol-2-one], the “T(50%) time for inhibition of contraction to decay to 50% of its maximum value” ([1]; 100 nM concentration) is reported as over 672 min.

For `CC(NCC(O)c1cc(O)cc2[nH]c(=O)sc12)C1CCCCC1` (stereo not shown) [Example 2], the Ki (β2-adrenoreceptor; [2]) was 61 nM.

`CCCCOc1ccc(CC(C)(C)NCC(O)c2cc(O)cc3[nH]c(=O)sc23)cc1` (stereo not shown) [Example 4] showed a Ki (β2-adrenoreceptor) of 27 nM.

Compound `CC(CCc1ccccc1)NCC(O)c1cc(O)cc2[nH]c(=O)sc12` (stereo not shown) [Example 9] has a Ki (β2-adrenoreceptor; [2]) of 16 nM.

For `O=c1[nH]c2cc(O)cc(C(O)CNC3CCCC3C3CCCC3)c2s1` (stereo not shown) [Example 14], the Ki (β2-adrenoreceptor; [2]) was 56 nM.

In the case of `O=c1[nH]c2cc(O)cc(C(O)CNC3CCCC3OCc3ccccc3)c2s1` (stereo not shown) [Example 17], the Ki (β2-adrenoreceptor; [2]) is reported as 2 nM.

In the case of `CN(C)c1ccc(CC(C)(C)NC[C@@H](O)c2cc(O)cc3[nH]c(=O)sc23)cc1` [Example 18, (S)-7-{2-[2-(4-Dimethylamino-phenyl)-1,1-dimethyl-ethylamino]-1-hydroxy-ethyl}-5-hydroxy-3H-benzothiazol-2-one], the “T(50%) time for inhibition of contraction to decay to 50% of its maximum value” ([1]; 10 nM concentration) is reported as 595 min.
